Experimental data reported in patent US20250319095A1, “USE OF BENZO[…] INCREASE SENSITIVITY TO […] A CHRONIC SSRI REGIMEN” (Compass Pathfinder Limited, priority 2020, published 2025).
Where “and” joins values, the source holds several entries; their conditions need not be identical. Identical values can stand only once.

Experiments:
[1] = oral dose equivalence; cited from earlier work
male C57BL/6J mice = test: Psilocybin head twitch response with chronic diazepam pre-treatment; assay type: in vivo
Experimental: Sixty-two (60 plus 2 spares;) male C57BL/6J mice (20-25 g upon arrival) were purchased from Charles River UK. Animals were group housed (in 3 s and a pair) in polypropylene cages. Mice were maintained on a normal phase 12 h light-dark cycle (lights on: 07:00-19:00 h) with free access to standard rodent maintenance diet (standard pelleted diet Envigo 2018) and filtered tap water. The holding room was maintained at a temperature of 21±4° C. and relative humidity was 55±15% with prolonged periods below 40% RH or above 70% RH avoided as detailed in the UK Code of Practice. As a refinement, each cage contained sawdust, sizzle nest, a red house, Perspex tunnel, plastic chew stick and a nestlet so that the mice can make nests and facilitate warmth. Mice were weighed upon arrival and provided with wet mash overnight. The following morning, mice were weighed, and the mash removed.
Mice were weighed and allocated into 6 treatment groups by a statistician (as per Table 20 below). […] For groups A-D animals were placed individually in clean cages with a light dusting of sawdust immediately following psilocybin administration (0.3 mg/kg, s.c) for head twitch response assessment. Head twitches were counted by a trained observer over a 30 minute period.
Statistical significance was tested using two-way analysis of variance with treatment and observer as cofactors (Table 21 below).

5HT2A = molecular target: T1, 5HT2A (Mus musculus, UniProt P35363); test: [3H]MDL100907 binding in frontal cortical membranes (5HT2A Kd and Bmax)
T1 construct: homogenates were prepared from frontal cortices sampled from groups E and F; from tissue; host or cells: mouse frontal cortex membranes (homogenate)
Experimental: To prepare the homogenate, frontal cortices from each animal were homogenized individually in 40 volumes (w/v) of ice cold assay buffer using a tight-fitting glass/Teflon homogenizer and centrifuged at 39,500×g for 10 min. The supernatant was discarded, and the pellet re-suspended in 40 volumes (w/v) of assay buffer and the tissue washed by centrifugation two more times. The final pellet was re-suspended in ice-cold assay buffer to 6.25 mg weight wet of tissue/ml and used immediately in the binding assay. Aliquots of final membrane preparations were also stored at −80 C until required for protein determination. All centrifugations will be carried out at 4° C.
To examine binding, the frontal cortical membranes (400 μl; equivalent to 2.5 mg wet weight of tissue/tube) were incubated with 50 μl of [3H] MDL 100907 (8 concentrations: 0.025, 0.05, 0.1, 0.2, 0.4, 0.8, 1.6, 3.2 nM) and either 50 μl of buffer (total binding) or 50 μl of 10 μM ketanserin (to define nonspecific binding) for 60 min at 25 C. […]
Membrane bound radioactivity was recovered by filtration under vacuum through Skatron 11731 filters, presoaked in 0.5% polyethylenimine (PEI) using a Skatron cell harvester. Filters were rapidly washed with ice cold wash buffer (wash setting 9,9,0) and radioactivity determined by liquid scintillation counting (1 ml Packard MV Gold scintillator). […]

T1 sequence (P35363 whole entry): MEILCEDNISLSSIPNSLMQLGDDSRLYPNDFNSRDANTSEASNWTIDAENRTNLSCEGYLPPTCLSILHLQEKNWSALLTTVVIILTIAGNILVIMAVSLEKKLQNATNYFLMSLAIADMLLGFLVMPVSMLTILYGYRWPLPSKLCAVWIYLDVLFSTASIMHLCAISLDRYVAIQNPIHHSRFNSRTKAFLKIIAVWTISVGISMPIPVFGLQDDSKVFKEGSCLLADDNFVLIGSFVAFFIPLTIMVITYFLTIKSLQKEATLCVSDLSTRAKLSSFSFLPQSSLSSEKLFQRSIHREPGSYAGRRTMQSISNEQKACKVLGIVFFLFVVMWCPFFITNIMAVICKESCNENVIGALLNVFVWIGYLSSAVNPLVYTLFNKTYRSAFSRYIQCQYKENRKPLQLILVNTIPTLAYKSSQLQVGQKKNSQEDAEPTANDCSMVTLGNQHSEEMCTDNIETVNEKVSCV

| SMILES | Relative Potency [1] | also measured |
| --- | --- | --- |
| CCN(CC)CCN1C(=O)CN=C(c2ccccc2F)c2cc(Cl)ccc21 [Flurazepam, flurazepam] | 10 mg |  |
| CN1C(=O)C(O)N=C(c2ccccc2)c2cc(Cl)ccc21 (stereo not drawn) [Temazepam, temazepam] | 10 mg |  |
| Cc1nnc2n1-c1ccc(Cl)cc1C(c1ccccc1Cl)=NC2 [Triazolam, triazolam] | 0.25 mg |  |
| O=C(O)C1N=C(c2ccccc2)c2cc(Cl)ccc2NC1=O (stereo not drawn) [Clorazepate, clorazepate] | 7 mg |  |
| CN1C(=O)CN=C(c2ccccc2)c2cc(Cl)ccc21 [Diazepam, diazepam] |  | psilocybin HTR, change with diazepam pretreatment (male C57BL/6J mice; 2 h post diazepam pretreatment): trend increase; HTR, change with diazepam pretreatment (male C57BL/6J mice; HTR at 10-15 and 20-25 minutes analyzed separately): significant increase; HTR, change with diazepam pretreatment (male C57BL/6J mice; over 30 minutes): trend increase; Bmax (fmoles/mg protein) (5HT2A): 271 fmoles/mg protein and 339 fmoles/mg protein and 334 fmoles/mg protein and 360 fmoles/mg protein and 314 fmoles/mg protein and 376 fmoles/mg protein; Bmax (pM) (5HT2A): 74.0 pM and 78.3 pM and 77.8 pM and 93.6 pM and 87.2 pM and 87.6 pM |
| Cc1nnc2n1-c1ccc(Cl)cc1C(c1ccccc1)=NC2 [Alprazolam, alprazolam] | 0.5 mg |  |
| Clc1ccc2c(c1)C(c1ccccc1)=NCc1nncn1-2 [Estazolam, estazolam] | 0.5 to 1 mg |  |
| O=C1CN=C(c2ccccc2Cl)c2cc([N+](=O)[O-])ccc2N1 [Clonazepam, clonazepam] | 0.25 to 0.5 mg |  |
| Fc1ccccc1C1=NCC(=S)N(CC(F)(F)F)c2ccc(Cl)cc21 [Quazepam, quazepam] | 13 mg |  |
| O=C1Nc2ccc(Cl)cc2C(c2ccccc2Cl)=NC1O (stereo not drawn) [Lorazepam, lorazepam] | 1 mg |  |
| Cc1ncc2n1-c1ccc(Cl)cc1C(c1ccccc1F)=NC2 [Midazolam, midazolam] | 3.3 mg |  |
